Data from US10774064B2 (Cadent Therapeutics, Inc., priority 2016, dated 2020).

Biological target: T1, small-conductance Ca2+-activated K+ channels (SK channels, subtype 2) (Homo sapiens, UniProt Q9H2S1)
T1 construct: expressed in transfected cells; host or cells: HEK293
Assay: whole-cell patch-clamp of ionic current through SK2 channels in HEK293 cells (SC100)
Type: cell-based
Conditions: concentration that increases the basal current by 100%; HEK293 cells expressing SK2 channels
Procedure: The biological activity was determined as follows. The ionic current through small-conductance Ca^2+-activated K^+ channels (SK channels, subtype 2) was measured using the whole-cell configuration of the patch-clamp technique in a patch-clamp set-up using HEK293 tissue culture cells expressing SK2 channels as described in Hougaard et al., British Journal of Pharmacology 151, 655-665, May 8, 2007, the entire teachings of which are incorporated herein by reference. In one aspect, a compound is defined to be an SK PAM if the compound increases current in this assay, for example, if the SC100 value of the compound is less than or equal to 10 μM as determined by this assay. The SC100 value is defined to be the concentration of compound that increases the basal current by 100%.

SC100	SMILES
++ (++ means 200 nM-1000 nM)	Cc1cc(C)n(-c2nc(CO)cc(NC3CCC(F)(F)CC3)n2)n1 [Compound 137, (6-((4,4-difluorocyclohexyl)amino)-2-(3,5-dimethyl-1H-pyrazol-1-yl)pyrimidin-4-yl)methanol]
+ (+ means >1 uM)	Cc1ccn(-c2nc(NC3CCC(F)(F)CC3)cc(N3CC(C)(O)C3)n2)n1 [Compound 140, 1-(6-((4,4-difluorocyclohexyl)amino)-2-(3-methyl-1H-pyrazol-1-yl)pyrimidin-4-yl)-3-methylazetidin-3-ol]
++ (++ means 200 nM-1000 nM)	Cc1ccn(-c2nc(NC3CCC(F)(F)CC3)cc(NC3COC3)n2)n1 [Compound 141, N4-(4,4-difluorocyclohexyl)-2-(3-methyl-1H-pyrazol-1-yl)-N6-(oxetan-3-yl)pyrimidine-4,6-diamine]
+ (+ means >1 uM)	Cc1cc(C)n(-c2nc(NC3CCC(F)(F)CC3)cc(C(F)F)n2)n1 [Compound 142, N-(4,4-difluorocyclohexyl)-6-(difluoromethyl)-2-(3,5-dimethyl-1H-pyrazol-1-yl)pyrimidin-4-amine]
++ (++ means 200 nM-1000 nM)	Cc1ccn(-c2nc(NC3CCC(F)(F)CC3)cc(N3CC(N(C)C)C3)n2)n1 [Compound 143, N-(4,4-difluorocyclohexyl)-6-(3-(dimethylamino)azetidin-1-yl)-2-(3-methyl-1H-pyrazol-1-yl)pyrimidin-4-amine]
+ (+ means >1 uM)	Cc1cc(NC2CCC(C(F)(F)F)CC2)nc(-n2ccc(C)n2)n1 (stereo not shown) [Compound 144, 6-methyl-2-(3-methyl-1H-pyrazol-1-yl)-N-(4-(trifluoromethyl)cyclohexyl)pyrimidin-4-amine]
+ (+ means >1 uM)	Cc1cc(C)n(-c2nc(NCc3ncco3)cc(NC3CCC(F)(F)CC3)n2)n1 [Compound 145, N4-(4,4-difluorocyclohexyl)-2-(3,5-dimethyl-1H-pyrazol-1-yl)-N6-(oxazol-2-ylmethyl)pyrimidine-4,6-diamine]
++ (++ means 200 nM-1000 nM)	Cc1ccn(-c2nc(NCC(C)(C)C)cc(NC3CCC(F)(F)CC3)n2)n1 [Compound 146, N4-(4,4-difluorocyclohexyl)-2-(3-methyl-1H-pyrazol-1-yl)-N6-neopentylpyrimidine-4,6-diamine]
++ (++ means 200 nM-1000 nM)	Cc1ccn(-c2nc(NC3CCC(F)(F)CC3)cc(NC3CC(F)(F)C3)n2)n1 [Compound 147, N4-(3,3-difluorocyclobutyl)-N6-(4,4-difluorocyclohexyl)-2-(3-methyl-1H-pyrazol-1-yl)pyrimidine-4,6-diamine]
++ (++ means 200 nM-1000 nM)	Cc1cc(NC2CCC(F)(F)CC2)nc(-n2ccc(C)n2)n1 [Compound 148, N-(4,4-difluorocyclohexyl)-6-methyl-2-(3-methyl-1H-pyrazol-1-yl)pyrimidin-4-amine]

The next lines start with the molecule.

SMILES	SC100
Cc1cc(C)n(-c2nc3c(c(NC4CCC(F)(F)CC4)n2)CCN(CCO)C3)n1 [Compound 118, 2-(4-((4,4-difluorocyclohexyl)amino)-2-(3,5-dimethyl-1H-pyrazol-1-yl)-5,8-dihydropyrido[3,4-d]pyrimidin-7(6H)-yl)ethan-1-ol]	+ (+ means >1 uM)
Cc1cc(-n2ccc(C)n2)nc(NC2CCC(F)(F)CC2)n1 [Compound 120, N-(4,4-difluorocyclohexyl)-4-methyl-6-(3-methyl-1H-pyrazol-1-yl)pyrimidin-2-amine]	++ (++ means 200 nM-1000 nM)
Cc1cc(C)n(-c2nc3c(c(NC4CCC(F)(F)CC4)n2)CCN(CC(N)=O)C3)n1 [Compound 121, 2-(4-((4,4-difluorocyclohexyl)amino)-2-(3,5-dimethyl-1H-pyrazol-1-yl)-5,8-dihydropyrido[3,4-d]pyrimidin-7(6H)-yl)acetamide]	+ (+ means >1 uM)
Cc1cc(C)n(-c2nc3c(c(NC4CCC(F)(F)CC4)n2)CCN(CC#N)C3)n1 [Compound 122, 2-(4-((4,4-difluorocyclohexyl)amino)-2-(3,5-dimethyl-1H-pyrazol-1-yl)-5,8-dihydropyrido [3,4-d]pyrimidin-7(6H)-yl)acetonitrile]	+ (+ means >1 uM)
Cc1cc(C)n(-c2nc3c(c(NC4CCC(F)(F)CC4)n2)CCN(C(C)C)C3)n1 [Compound 123, N-(4,4-difluorocyclohexyl)-2-(3,5-dimethyl-1H-pyrazol-1-yl)-7-isopropyl-5,6,7,8-tetrahydropyrido[3,4-d]pyrimidin-4-amine]	+ (+ means >1 uM)
Cc1cc(C)n(-c2nc(NC3CCC(F)(F)CC3)cc(NC(C)c3nccs3)n2)n1 (stereo not shown) [Compound 124, N4-(4,4-difluorocyclohexyl)-2-(3,5-dimethyl-1H-pyrazol-1-yl)-N6-(1-(thiazol-2-yl)ethyl)pyrimidine-4,6-diamine]	+ (+ means >1 uM)
Cc1cc(C)n(-c2nc(NC3CCC(F)(F)CC3)cc(NC3CCN(C)C3=O)n2)n1 (stereo not shown) [Compound 125, 3-((6-((4,4-difluorocyclohexyl)amino)-2-(3,5-dimethyl-1H-pyrazol-1-yl)pyrimidin-4-yl)amino)-1-methylpyrrolidin-2-one]	+ (+ means >1 uM)
Cc1cc(C)n(-c2cc(-n3cccn3)cc(NC3CCC(F)(F)CC3)n2)n1 [Compound 127, N-(4,4-difluorocyclohexyl)-6-(3,5-dimethyl-1H-pyrazol-1-yl)-4-(1H-pyrazol-1-yl)pyridin-2-amine]	++ (++ means 200 nM-1000 nM)
Cc1cc(C)n(-c2nc(NC3CCC(F)(F)CC3)cc(N[C@@H]3CCN(C)C3=O)n2)n1 [Compound 129, (−)-3-((6-((4,4-difluorocyclohexyl)amino)-2-(3,5-dimethyl-1H-pyrazol-1-yl)pyrimidin-4-yl)amino)-1-methylpyrrolidin-2-one]	+ (+ means >1 uM)
CC(=O)N1CCN(c2cc(NC3CCC(F)(F)C3)nc(-n3nc(C)cc3C)n2)CC1 (stereo not shown) [Compound 130, 1-(4-(6-((3,3-difluorocyclopentyl)amino)-2-(3,5-dimethyl-1H-pyrazol-1-yl)pyrimidin-4-yl)piperazin-1-yl)ethan-1-one]	+ (+ means >1 uM)
Cc1cc(C)n(-c2nc(NC3CCC(F)(F)CC3)cc(C(N)=O)n2)n1 [Compound 131, 6-((4,4-difluorocyclohexyl)amino)-2-(3,5-dimethyl-1H-pyrazol-1-yl)pyrimidine-4-carboxamide]	+ (+ means >1 uM)
CC(=O)N1CCN(c2cc(N(C)C3CCC(F)(F)CC3)nc(-n3nc(C)cc3C)n2)CC1 [Compound 132, 1-(4-(6-((4,4-difluorocyclohexyl)(methyl)amino)-2-(3,5-dimethyl-1H-pyrazol-1-yl)pyrimidin-4-yl)piperazin-1-yl)ethan-1-one]	++ (++ means 200 nM-1000 nM)
Cc1cc(C)n(-c2nc(NC3CCC(F)(F)CC3)cc(NC3CCCN(C)C3=O)n2)n1 (stereo not shown) [Compound 133, 3-((6-((4,4-difluorocyclohexyl)amino)-2-(3,5-dimethyl-1H-pyrazol-1-yl)pyrimidin-4-yl)amino)-1-methylpiperidin-2-one]	+ (+ means >1 uM)
CC(=O)N1CCN(c2cc(NC3CCC(F)(F)CC3)nc(-n3nc(C)cc3C)c2)CC1 [Compound 134, 1-(4-(2-((4,4-difluorocyclohexyl)amino)-6-(3,5-dimethyl-1H-pyrazol-1-yl)pyridin-4-yl)piperazin-1-yl)ethan-1-one]	++ (++ means 200 nM-1000 nM)
Cc1cc(C)n(-c2nc(NC3CCC(F)(F)CC3)cc(C(C)O)n2)n1 (stereo not shown) [Compound 136]	++ (++ means 200 nM-1000 nM)
